{
  "source": "patent EP0038572A1",
  "about": "“1-Nitro-9-hydroxyalkylaminoacridines or their salts” (priority 1980, dated 1981)",
  "key": {"Acute toxicity in rats": {"test": "Acute toxicity in rats", "details": "rat, in vivo, iv, intravenously"}, "[1]": {"test": "Immunosuppressive action (contact allergy, local transplant-host reaction, post adjuvant multiarticular inflammation tests)", "type": "in vivo", "details": "appears only after the total dose corresponding to 1/5 of LD50", "excerpt": "(§1) In a dose corresponding to 1/2 of LD50 it inhibits the spontaneous mobility and shortens hexobarbital anaesthesia. […] Its immunosuppresive action measured in contact allergy tests, local transplant-host reaction tests and post adjuvant multiarticular inflammation is minimal and appears only after the total dose corresponding to 1/5 of LD50."}, "Crocker sarcoma (Sa-180)": {"test_system": "Crocker sarcoma (Sa-180)", "test": "Growth inhibition of Crocker sarcoma (Sa-180) in mice", "type": "in vivo", "details": "intraperitoneally, tumor weight vs control", "experimental": "The growth inhibition of Crocker sarcoma (Sa-180) in mice.\nFor these experiments three-months old mice of about 25 g in weight were used. Each was inoculated with mouse sarcoma (Sa-180) and then they were divided into groups: a group of 10 control mice, and two to four test groups of 7 mice each.\nThe compounds to be investigated were administered intraperitoneally in appropriate doses after previous determination of maximum tolerance dose.\nThe percent difference between the mean weight of tumors isolated from control and test mice was accepted as a criterion for the evaluation of antineoplastic activity of the compounds, taking into account the toxic effects.\nAfter doses of between 0.2-0.8 mg/kg the percent of inhibition was 44-86% respectively. Similarly, for the preparation allocated the code number C-934, i.e. 1-nitro-9-(hydroxybutylamino)acridine hydrochloride, after doses of between 0.2-0.4 mg/kg percent of inhibition was 45-60 % respectively."}, "[2]": {"test": "Acute toxicity in rabbits", "details": "rabbit, in vivo, route not given", "experimental": "(§2) Pharmacological examination of the compound C-857 was carried out in mice, rats and rabbits. The acute, subacute, and long-term toxicity were studied in rats and rabbits (orally and intraperitoneally) and in mice (intraperitoneally). […] In the subacute toxicity studies (3 weeks) 1/60 and 1/120 of LD50 were considered; in the long-term toxicity evaluations (3 months) - 1/200 and 1/400 of LD50."}, "[3]": {"test": "General pharmacological examination (circulatory, spasmolytic, central nervous system)", "type": "in vivo, mice, rats and rabbits", "experimental": "as §2, §1"}, "[4]": {"test": "Vomiting effect in pigeons", "type": "in vivo"}, "[5]": {"test_system": "cells forming colonies in marrow", "parameters": "species or system mice", "details": "mouse, in vivo", "excerpt": "The effect of action of compound C-857 is similar to that of Bleomicine which is non-toxic for marrow."}, "Acute toxicity in mice": {"test": "Acute toxicity in mice", "type": "in vivo", "details": "intraperitoneally", "excerpt": "The acute, subacute, and long-term toxicity were studied in rats and rabbits (orally and intraperitoneally) and in mice (intraperitoneally)."}, "[6]": {"test": "Long-term toxicity evaluations (3 months)", "type": "in vivo, mice, rats and rabbits", "experimental": "as §2\nThe preparation C-857 was found not to change the spleen-liver index.\nNo changes of urea and creatinine content were found."}, "[7]": {"test": "Subacute toxicity studies (3 weeks)", "type": "in vivo, mice, rats and rabbits", "experimental": "as §2\nAbout 15-40 % of total number of mice died after a dose of 1/120 of LD50. The increase in the number of leucocytes (particularly in rabbits) and decrease in relative number of lymphocytes were observed. However, no changes in the number of red cells were found. […] The preparation C-857 induced some drop of the urine level in rabbits."}, "[8]": {"details": "dose corresponding to 1/2 of LD50"}, "[9]": {"details": "intravenously, doses increasing to 20 mg/kg"}},
  "data": [
    {"compound": "Cl.O=[N+]([O-])c1cccc2nc3ccccc3c(NCCO)c12", "note": "[Example C-857, 1-nitro-9-(2-hydroxyethylamino)-acridine hydrochloride]", "values": [
      {"measurement": "LD50", "setting": "Acute toxicity in rats", "result": 9.2, "unit": "mg/kg"},
      {"measurement": "immunosuppresive action", "setting": "[1]", "result": "minimal"},
      {"measurement": "percent of inhibition", "setting": "Crocker sarcoma (Sa-180); doses of between 0.2-0.8 mg/kg", "result": "44-86%"},
      {"measurement": "LD50", "setting": "[2]", "result": 11.4, "unit": "mg/kg"},
      {"measurement": "hexobarbital anaesthesia", "setting": "[3]; [8]", "result": "shortens"},
      {"measurement": "spontaneous mobility", "setting": "[3]; [8]", "result": "inhibits"},
      {"measurement": "analgestic or anti-conclusive activity", "setting": "[3]; in vivo", "result": "does not show any"},
      {"measurement": "effect on central nervous system", "setting": "[3]; in vivo", "result": "weak and irregular"},
      {"measurement": "effect on the circulatory system", "setting": "[3]; [9]", "result": "did not exert any significant effect"},
      {"measurement": "spasmolytic action", "setting": "[3]; [9]", "result": "weak"},
      {"measurement": "vomiting effect", "setting": "[4]", "result": "did not exert vomiting effect"},
      {"measurement": "myclo- toxic effect on cells forming colonies in marrow", "setting": "[5]", "result": "not to produce myclo- toxic effect"},
      {"measurement": "maximal tolerated dose, LD10", "setting": "Acute toxicity in mice", "result": 2.5, "unit": "mg/kg"},
      {"measurement": "LD50", "setting": "Acute toxicity in mice; mouse, in vivo, ip", "result": 10.6, "unit": "mg/kg"},
      {"measurement": "general changes in long-term toxicity observation", "setting": "[6]; 3 months, 1/200 and 1/400 of LD50", "result": "decrease in physical activity, lack of thirst or occasional diarrhoea"},
      {"measurement": "local action", "setting": "[6]; administrated intraperitoneally", "result": "locally irritating action"},
      {"measurement": "leucocytes (hematologic studies)", "setting": "[6]; in rabbits and rats", "result": "leucocytosis"},
      {"measurement": "relative content of eosinophis", "setting": "[6]; in rabbits and rats", "result": "decrease"},
      {"measurement": "value of hematocrit", "setting": "[6]; in rabbits, hematologic studies", "result": "decrease"},
      {"measurement": "activity of AspAT and ALAT enzymes", "setting": "[6]; in vivo", "result": "no changes"},
      {"measurement": "activity of alkaline phosphatase", "setting": "[6]; in vivo", "result": "Slight changes"},
      {"measurement": "urea and creatinine content", "setting": "[6]; in vivo", "result": "No changes"},
      {"measurement": "changes in liver and kidneys", "setting": "[6]; long-term", "result": "Insignificant changes"},
      {"measurement": "changes in thymus gland and intestine", "setting": "[6]; long-term", "result": "no changes"},
      {"measurement": "spleen-liver index", "setting": "[6]; long-term", "result": "not to change"},
      {"measurement": "effects observed in the subacute toxicity investigations", "setting": "[7]; 3 weeks, 1/60 and 1/120 of LD50", "result": "moult, dyspndea, lack of thirst, diarrhoea, and loss of body weight"},
      {"measurement": "total number of mice died", "setting": "[7]; mice, dose of 1/120 of LD50, subacute", "result": "15-40%"},
      {"measurement": "urine level", "setting": "[7]; rabbits, subacute", "result": "some drop"},
      {"measurement": "Liver and kidney function tests", "setting": "[7]; subacute", "result": "no pathological abnormalities"},
      {"measurement": "histologic studies, findings", "setting": "[7]; subacute", "result": "nectrotic inflammation of the liver capsule and peritoneum of intestine wall"},
      {"measurement": "histologic studies, interneal organs (liver, kidney, thymus gland)", "setting": "[7]; subacute", "result": "No pathological abnormalities"},
      {"measurement": "number of red cells", "setting": "[7]; subacute", "result": "no changes"},
      {"measurement": "relative number of lymphocytes", "setting": "[7]; subacute", "result": "decrease"},
      {"measurement": "number of leucocytes", "setting": "[7]; subacute, particularly in rabbits", "result": "increase"}
    ]},
    {"compound": "Cl.O=[N+]([O-])c1cccc2nc3ccccc3c(NCCCCO)c12", "note": "[Example C-934, 1-nitro-9(4-hydroxybutylamino)acridine hydrochloride]", "values": [
      {"measurement": "percent of inhibition", "setting": "Crocker sarcoma (Sa-180); doses of between 0.2-0.4 mg/kg", "result": "45-60%"}
    ]}
  ]
}
